Reference: US4402975A, “Aminocarboxylic acids, amino alcohols, or the derivatives thereof, processes for production thereof, and pharmaceutical uses thereof” (Teijin Limited, priority 1980, dated 1983)
Counter-ions that a name gives are not always drawn.

Columns and labels:
[1] = system: serotonin ulcer; assay: Inhibitory activity on serotonin ulcer; assay type: in vivo, SD-strain male rats; details: 30 min before serotonin 20 mg/kg s.c., rats
Procedure: Seven week-old SD-strain male rats (body weight 200 to 220 g) were fasted for 24 hours but water was provided freely, and then used in the following experiment. Each of the test compounds suspended in 0.5% CMC was administered to the rats either orally or intraperitoneally, and 30 minutes later, serotonin (serotonin creatinine sulfate) was subcutaneously administered to the rats in a dose of 20 mg/kg. Four hours later, the animals were sacrificed. The abdomen was cut open, and the stomach was taken out from each animal. 12 ml of 1% formalin was injected into the stomach to inflate it, and the stomach was further dipped for about 10 minutes in 1% formalin for fixation. Then, the stomach was cut open on the side of the lesser curvature, and spread on a glass plate. The area of ulcers generated in the glandular stomach was measured by using a solid microscope. The sum of the area of ulcer for each animal was used as the ulcer index. The ulcer inhibiting ratio of the test compound was calculated in accordance with the following equation. [formula] The control group was given 0.5% CMC and serotonin alone.

[2] = system: Shay ulcer; assay: Inhibitory activity on Shay ulcer (pylorus ligation); assay type: in vivo, SD-strain male rats; details: 300 mg/kg i.p.
Procedure: Seven week-old SD-strain male rats (body weight 200 to 220 g) were fasted for 24 hours but water was provided freely, and then used in the experiment.
The rats were anesthetized with ether. The abdomen was cut open along the median line to expose the pylorus. Then, the pylorus was ligated. After the ligation, each of the test compounds, dissolved in physiological saline, was administered intraperitoneally to the rats. The abdomen was sutured. After confirming that the animals recovered from ether anesthesia, they were kept in a wire cage while being deprived of food and water. Seventeen hours later, the animals were killed by using ether. The abdomen was again cut open, and the stomach was removed. The stomach was cut open, and the area of ulcers generated in the fundus was measured by using a solid microscope, and scored as tabulated below to obtain ulcer indices. […]
(§1) The control group was given physiological saline alone.
For the measurement of the Shay ulcer inhibiting activity, reference may be made to H. Shay, S. A. Komoroe, S. S. Fels, M. Meraze, M. Gruestein, and H. Siplet: Gastroent., 5, 43 (1945).

[3] = system: gastric secretion; assay: Inhibitory activity on gastric secretion (pylorus ligation); assay type: in vivo, male rats; details: for Amount of gastric juice: 4 hours after pylorus ligation, control 6.8 ± 0.6, in ml (unit assumed); for Acidity: control 109.1 ± 1.7
Procedure: Seven week-old DS-strain male rats (body weight 200 to 220 g) were fasted for 24 hours but water was provided freely, and then used in the following experiment.
The rats were anesthetized with ether. The abdomen was cut open along the median line to expose the pylorus. Then, the pylorus was ligated. After ligation, each of the test compounds dissolved in physiological saline was intraperitoneally administered to the animals. The abdomen was sutured, and after confirming that the animals recovered from ether anesthesia, they were kept in a wire cage while being deprived of food and water. Four hours later, the animals were killed by using ether. The abdomen was again cut open, and the stomach was removed. The gastric juice was collected, and its volume and acidity was measured. The acidity of the gastric juice was determined by titrating with 0.05 N sodium hydroxide using phenolphthalein as an indicator, and calculating the amount of sodium hydroxide required to neutralize the gastric juice which is estimated as the acidity of the gastric juice.
as §1
For the method of studying the inhibitory activity on the gastiic secretion, reference may be made to H. Shay, S. A. Komoroe, S. S. Fels, M. Meraze, M. Gruestein and H. Siplet: Gastroent., 5, 43 (1945), and M. L. Anson: J. Gen, Physiol., 21, 79 (1938).

[4] = system: blood flow in the gastric mucosa; assay: Increasing activity on the blood flow in the dog gastric mucosa; assay type: in vivo, Male Beagle dogs; details: anesthetized dogs, cross thermocouple method
Procedure: Male Beagle dogs (10 to 15 kg) were anesthetized by intravenously administering sodium pentobarbital in a dose of 35 mg/kg, and used in the following experiment.
The blood flow in the gastric mucosa was measured by a cross thermocouple method. The abdomen was cut open along the median line to expose the stomach. A wire-type cross thermocouple element was inserted behind the mucosa on the glandular stomach. The blood flow measured by the cross thermocouple element was recorded continuously in a recorder. For the method of measuring the blood flow, reference may be made to a Japanese-language publication "Blood Flow Measurement", page 105, 1974 Igakushoin, edited by Okinaka, Hori and Honda.

[5] = biological target: T1, plasmin (Homo sapiens, UniProt P00747); assay: Antiplasmin activity (clot lysis time, fibrinogen/urokinase/thrombin); assay type: biochemical
T1 construct: fibrin clot lysis, native
T1 sequence (P00747 97-810): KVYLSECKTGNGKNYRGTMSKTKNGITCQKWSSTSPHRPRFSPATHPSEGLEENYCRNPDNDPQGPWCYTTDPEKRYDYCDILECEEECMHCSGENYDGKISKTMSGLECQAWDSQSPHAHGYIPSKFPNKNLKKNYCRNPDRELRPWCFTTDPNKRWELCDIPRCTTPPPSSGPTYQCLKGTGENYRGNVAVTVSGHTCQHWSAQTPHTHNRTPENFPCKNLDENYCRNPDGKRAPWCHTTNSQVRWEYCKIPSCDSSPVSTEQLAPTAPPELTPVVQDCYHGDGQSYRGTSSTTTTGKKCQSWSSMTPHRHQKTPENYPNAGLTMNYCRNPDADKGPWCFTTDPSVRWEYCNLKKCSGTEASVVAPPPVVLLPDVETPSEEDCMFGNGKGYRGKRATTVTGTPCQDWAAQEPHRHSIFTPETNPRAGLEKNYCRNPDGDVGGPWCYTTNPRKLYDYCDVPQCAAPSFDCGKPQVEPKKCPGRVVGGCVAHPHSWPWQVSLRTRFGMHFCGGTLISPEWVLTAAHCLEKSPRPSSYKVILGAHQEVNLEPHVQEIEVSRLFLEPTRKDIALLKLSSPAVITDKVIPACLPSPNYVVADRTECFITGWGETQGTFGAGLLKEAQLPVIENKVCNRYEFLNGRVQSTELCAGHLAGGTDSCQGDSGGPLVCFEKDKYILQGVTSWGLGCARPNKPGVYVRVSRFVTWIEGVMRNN
Procedure: Human fibrinogen was dissolved in a phosphate-buffered physiological saline (PBS) at a pH of 7.4 to prepare a 0.2% solution. Urokinase and thrombin were dissolved similarly in PBS to prepare a solution containing 120 units of urokinase and 50 units of thrombin per ml. […] Then, 0.1 ml of the urokinase-thrombin mixed solution was added, and a microchronometer was started. One minute after the starting of the microchronometer, a glass ball having a diameter of 8 mm was put on the coagulated surface, and the incubation was continued. The time which elapsed from the dissolution of the coagulated mass until the glass ball dropped onto the bottom of the test tube was measured. As a control, PBS alone was added.

[6] = system: indomethacin ulcer; assay: Inhibitory activity on indomethacin ulcer; assay type: in vivo, SD-strain male rats; details: 30 min before indomethacin 20 mg/kg oral, rats
Procedure: Seven week-old SD-strain male rats (body weight 200 to 220 g) were fasted for 24 hours but water was provided freely, and then used in the following experiment.
Each of the test compounds suspended in 0.5% CMC was orally administered to the rats, and 30 minutes later, indomethacin was orally administered in a dose of 20 mg/kg. Six hours later, the animals were sacrificed. The abdomen was cut open, and the stomach was removed. 1% Evan's blue was injected in an amount of 0.5 ml/rat into the rats through the tail vein under ether anesthesia 10 minutes before sacrificing.
12 ml of a 1% formalin was injected into the stomach and the stomach was further dipped in 1% formalin for about 10 minutes for the fixation. The stomach was cut open on the side of the greater curvature, and spread on a glass plate. The lengths of ulcers generated in the glandular stomach were measured by using a solid microscope. The sum of the lengths of the ulcers for each animal was used as the ulcer index. The ulcer inhibiting ratio of the test compound was calculated in accordance with the following equation. [formula]
The control group was given 0.5% CMC and indomethacin alone.

[7] = system: thrombin; assay: Antithrombin activity (recalcification time of plasma); details: 5 × 10^-3 M; rabbit plasma, second series, control 103.3 ± 7.6
Procedure: Citrated blood (3.5% sodium citrate: blood=1:9) was drawn from a white native male rabbit (3 to 3.5 kg in body weight). The blood was centrifuged at 3000 rpm to prepare plasma which was used in the following experiment. One milliliter of the plasma was put in a small test tube having an inside diameter of 12 mm, and incubated at 37° C. Then, 0.1 ml of each of the test compounds, dissolved in PBS, was added, and the mixture was further incubated at 37° C. for 2 minutes. Then, 0.2 ml of 0.02 M CaCl2 was added, and a microchronometer was started. While occasionally shaking the test tube, the time which elapsed until the plasma coagulated was measured. As a control, PBS was used.

Structure (SMILES) | Ulcer inhibiting ratio ([1]; 100 mg/kg oral) [%] | Inhibition ratio (acidity) ([3]; 50 mg/kg i.p.) [%] | Inhibition ratio (amount of gastric juice) ([3]; 50 mg/kg i.p.) [%] | Amount of gastric juice ([3]; 50 mg/kg i.p.) | Acidity ([3]; 50 mg/kg i.p.) [μeq./ml] | Inhibition ratio (acidity) ([3]; 100 mg/kg i.p.) [%] | Inhibition ratio (amount of gastric juice) ([3]; 100 mg/kg i.p.) [%] | Amount of gastric juice ([3]; 100 mg/kg i.p.) | Acidity ([3]; 100 mg/kg i.p.) [μeq./ml] | Inhibition ratio (acidity) ([3]; 200 mg/kg i.p.) [%] | Inhibition ratio (amount of gastric juice) ([3]; 200 mg/kg i.p.) [%] | Amount of gastric juice ([3]; 200 mg/kg i.p.) | Acidity ([3]; 200 mg/kg i.p.) [μeq./ml] | also measured
NC[C@H]1CC[C@H](C(=O)c2ccc(CCC(=O)O)cc2)CC1 [3-[p-trans-4-aminomethylcyclohexylcarbonyl)phenyl]-propionic acid hydrochloride] | 76.7 | 17.5 | 41.7 | 4.8 ± 0.8 | 90.0 ± 4.5 | 31.8 | 54.4 | 3.1 ± 0.7 | 74.1 ± 6.1 | 70.1 | 89.4 | 0.7 ± 0.1 | 32.6 ± 2.6 | Ulcer inhibiting ratio ([1]; 30 mg/kg oral): 34.0%; Inhibition ratio ([2]; Shay ulcer, rats): 43.5%; Ratio of perforation ([2]; Shay ulcer, rats, control 80): 20%; Ulcer index ([2]; score 0-5 by ulcer area, 17 hours after pylorus ligation, control 4.6 ± 0.4): 2.6 ± 0.8; Increase in the gastric mucosal blood flow ([4]; 2 mg/kg i.v.): weak increase; Increase in the gastric mucosal blood flow ([4]; 5 mg/kg i.v.): remarkable; Clot lysis time ([5]; 10^-3 M, first series, control 391.7 ± 16.1): 980.0 s; Clot lysis time ([5]; 10^-4 M, first series, control 391.7 ± 16.1): 561.2 s; Clot lysis time ([5]; 10^-5 M, first series, control 391.7 ± 16.1): 413.9 s; Ulcer inhibiting ratio ([6]; 200 mg/kg oral): 62.2%
CCOC(=O)CCc1ccc(C(=O)CCCCCN)cc1 [(121) hydrochloride, ethyl 3-[p-ε-aminocaproyl)phenyl]propionate hydrochloride] | 72.3 | 48.9 | 77.9 | 1.5 ± 0.4 | 55.7 ± 9.3 | 58.9 | 94.1 | 0.4 ± 0.1 | 44.8 ± 5.0 | 74.4 | 94.1 | 0.4 ± 0.1 | 27.9 ± 4.4 | Clot lysis time ([5]; 10^-3 M, second series, control 556.7 ± 12.6): 670.0 s; Clot lysis time ([5]; 10^-4 M, second series, control 556.7 ± 12.6): 543.3 s; Recalcification time [7]: 96.0 s; Ulcer inhibiting ratio ([6]; 400 mg/kg oral): 89.7%
